Values after ≈ are worked out from the molar mass of the structure shown. Active and inactive are the calls of the source. The calls are words filed in the database; no cut-off is given here.
Assays:
[1] = test system: Staphylococcus aureus; assay: Disruption of membrane integrity in methicillin-reisitant Staphylococcus aureus JCSC 4744 at 10 ug/ml measured within 2 mins by SYTOX-greeen-based fluorescence assay; assay type: functional, organism-based
[2] = test system: Staphylococcus aureus; assay: Induction of cytoplasmic membrane depolarization in methicillin-resistant Staphylococcus aureus JCSC 4744 at 0.5 to 8 fold MIC by DiSC3-5 dye-based fluorescence assay; assay type: functional, organism-based
[3] = test system: Staphylococcus aureus; assay: Antibacterial activity against methicillin-resistant Staphylococcus aureus JCSC 4744 incubated overnight by CLSI protocol based microdilution assay; assay type: functional
[4] = test system: Staphylococcus aureus; assay: Antibacterial activity against methicillin-resistant Staphylococcus aureus JCSC 4469 incubated overnight by CLSI protocol based microdilution assay; assay type: functional
[5] = test system: Escherichia coli; assay: Antibacterial activity against Escherichia coli ATCC 8739 incubated overnight by CLSI protocol based microdilution assay; assay type: functional
[6] = test system: Bacillus cereus; assay: Antibacterial activity against Bacillus cereus CMCC 63302 incubated overnight by CLSI protocol based microdilution assay; assay type: functional
[7] = test system: Staphylococcus aureus; assay: Bactericidal activity against methicillin-resistant Staphylococcus aureus JCSC 4744 measured after 24 hrs by sub-culturing; assay type: functional; details: JCSC 4744, 24 h
[8] = test system: Staphylococcus aureus; assay: Bactericidal activity against methicillin-resistant Staphylococcus aureus JCSC 4469 measured after 24 hrs by sub-culturing; assay type: functional; details: JCSC 4469, 24 h
[9] = test system: Bacillus cereus; assay: Bactericidal activity against Bacillus cereus CMCC 63302 measured after 24 hrs by sub-culturing; assay type: functional; details: CMCC 63302, 24 h
[10] = test system: Staphylococcus aureus; assay: Bactericidal activity against methicillin-resistant Staphylococcus aureus JCSC 4744 assessed as reduction in cell survival by measuring colony forming units at MIC measured within 4 hrs by time-kill assay; assay type: functional
[11] = test system: Staphylococcus aureus; assay: Bactericidal activity against methicillin-resistant Staphylococcus aureus JCSC 4744 assessed as reduction in cell survival by measuring colony forming units at MIC measured within 4 hrs by time-kill assay relative to control; assay type: functional
[12] = test system: Staphylococcus aureus; assay: Bactericidal activity against methicillin-resistant Staphylococcus aureus JCSC 4744 assessed as reduction in cell survival by measuring colony forming units at MIC after 24 hrs by time-kill assay relative to control; assay type: functional
[13] = test system: Staphylococcus aureus; assay: Bactericidal activity against methicillin-resistant Staphylococcus aureus JCSC 4744 assessed as reduction in cell survival at 8 fold MIC measured after 24 hrs by time-kill assay; assay type: functional, organism-based
[14] = test system: Staphylococcus aureus; assay: Disruption of membrane integrity in methicillin-reisitant Staphylococcus aureus JCSC 4744 measured after 4 hrs by SYTOX-greeen-based fluorescence assay; assay type: functional, organism-based
[15] = test system: Staphylococcus aureus; assay: Induction of cell lysis in methicillin-resistant Staphylococcus aureus JCSC 4744 assessed as formation of membrane fissures at 8 fold MIC after 4 hrs by scanning electron microscopy; assay type: functional, organism-based
[16] = test system: Staphylococcus aureus; assay: Induction of cell lysis in methicillin-resistant Staphylococcus aureus JCSC 4744 assessed as formation of membrane disruption at 8 fold MIC after 4 hrs by scanning electron microscopy; assay type: functional, organism-based
[17] = test system: Staphylococcus aureus; assay: Bactericidal activity against Staphylococcus aureus CMCC 26003 measured after 24 hrs by sub-culturing; details: CMCC 26003, 24 h
[18] = test system: Staphylococcus aureus; assay: Antibacterial activity against Staphylococcus aureus CMCC 26003 incubated overnight by CLSI protocol based microdilution assay

CC[C@H](C)[C@H](NC(=O)CN)C(=O)NCC(=O)N[C@@H](C)C(=O)N[C@H](C(=O)N[C@@H](CC(C)C)C(=O)N[C@@H](CCCCN)C(=O)N[C@H](C(=O)N[C@@H](CC(C)C)C(=O)N[C@H](C(=O)N[C@H](C(=O)NCC(=O)N[C@@H](CC(C)C)C(=O)N1CCC[C@H]1C(=O)N[C@@H](C)C(=O)N[C@@H](CC(C)C)C(=O)N[C@H](C(=O)N[C@@H](CO)C(=O)N[C@@H](Cc1c[nH]c2ccccc12)C(=O)N[C@H](C(=O)N[C@@H](CCCCN)C(=O)N[C@@H](CCCNC(=N)N)C(=O)N[C@@H](CCCCN)C(=O)N[C@@H](CCCNC(=N)N)C(=O)N[C@@H](CCC(N)=O)C(=O)N[C@@H](CCC(N)=O)C(N)=O)[C@@H](C)CC)[C@@H](C)CC)[C@@H](C)O)[C@@H](C)O)C(C)C)C(C)C
Activity [1]: Active

COc1cc(O)c(C(=O)CC(C)C)c2c1[C@]1(O)C(O)=C(C(=O)C(C)C)C(=O)C[C@]1(OC)O2
Activity [2]: Active
MIC [3]: 3.12 µg/mL (≈ 6.96 µM)
MIC [4]: 3.12 µg/mL (≈ 6.96 µM)
MIC [5]: > 100 µg/mL
MIC [6]: 25 µg/mL (≈ 55.7 µM)
MBC [7]: 6.25 µg/mL (≈ 13.9 µM)
MBC [8]: 6.25 µg/mL (≈ 13.9 µM)
MBC [9]: 50 µg/mL (≈ 111 µM)
Activity [10]: 2 log10CFU/ml
inhibition (INH) [11]: 99%
inhibition (INH) [12]: 100%
Activity [13]: Active
Activity [14]: Active
Activity [15]: Active
Activity [16]: Active
MBC [17]: 50 µg/mL (≈ 111 µM)
MIC [18]: 25 µg/mL (≈ 55.7 µM)

COC1=C(C(=O)CC(C)C)C(=O)C(O)C1(C)C (centres undefined)
Activity [2]: Active
MIC [3]: 1.56 µg/mL (≈ 6.49 µM)
MIC [4]: 3.12 µg/mL (≈ 13 µM)
MIC [5]: > 100 µg/mL
MIC [6]: 12.5 µg/mL (≈ 52 µM)
MBC [7]: 3.12 µg/mL (≈ 13 µM)
MBC [8]: 6.25 µg/mL (≈ 26 µM)
MBC [9]: 25 µg/mL (≈ 104 µM)
Activity [10]: 2 log10CFU/ml
inhibition (INH) [11]: 99%
inhibition (INH) [12]: 100%
Activity [14]: Active
Activity [15]: Active
Activity [16]: Active
MBC [17]: 6.25 µg/mL (≈ 26 µM)
MIC [18]: 3.12 µg/mL (≈ 13 µM)

CN[C@H](CC(C)C)C(=O)N[C@H]1C(=O)N[C@@H](CC(N)=O)C(=O)N[C@H]2C(=O)N[C@H]3C(=O)N[C@H](C(=O)N[C@H](C(=O)O)c4cc(O)cc(O)c4-c4cc3ccc4O)[C@H](O)c3ccc(c(Cl)c3)Oc3cc2cc(c3O[C@@H]2O[C@H](CO)[C@@H](O)[C@H](O)[C@H]2O[C@H]2C[C@](C)(N)[C@H](O)[C@H](C)O2)Oc2ccc(cc2Cl)[C@H]1O [VANCOMYCIN]
MIC [3]: 0.78 µg/mL (≈ 0.538 µM)
MIC [4]: 0.78 µg/mL (≈ 0.538 µM)
MIC [5]: 50 µg/mL (≈ 34.5 µM)
MIC [6]: 50 µg/mL (≈ 34.5 µM)
MBC [7]: 2.5 µg/mL (≈ 1.73 µM)
MBC [8]: 2.5 µg/mL (≈ 1.73 µM)
Activity [10]: 2 log10CFU/ml
inhibition (INH) [11]: 99%
MBC [17]: 2.5 µg/mL (≈ 1.73 µM)
MIC [18]: 1.56 µg/mL (≈ 1.08 µM)

Reference: ChEMBL document CHEMBL4334453, “Callistemonols A and B, Potent Antimicrobial Acylphloroglucinol Derivatives with Unusual Carbon Skeletons from Callistemon viminalis” (2019)
